According to US8653092B2, “Tetrahydro-pyrido-pyrimidine derivatives” (Novartis AG, priority 2010, dated 2014):

Experiments:
PI3K alpha = PI3K alpha (Homo sapiens (Human), UniProt P42336); experiment: Enzymatic PI3K alpha isoform inhibition (lipid kinase, Kinase-Glo luminescence); format: biochemical; details: enzymatic assay
PI3K delta = PI3K delta (Homo sapiens (Human), UniProt O00329); experiment: Enzymatic PI3K delta isoform inhibition (lipid kinase, Kinase-Glo luminescence); format: biochemical; details: enzymatic assay
Sequence of PI3K delta (O00329 other isoform, or with tags, fused parts or gaps linker GGGGGG): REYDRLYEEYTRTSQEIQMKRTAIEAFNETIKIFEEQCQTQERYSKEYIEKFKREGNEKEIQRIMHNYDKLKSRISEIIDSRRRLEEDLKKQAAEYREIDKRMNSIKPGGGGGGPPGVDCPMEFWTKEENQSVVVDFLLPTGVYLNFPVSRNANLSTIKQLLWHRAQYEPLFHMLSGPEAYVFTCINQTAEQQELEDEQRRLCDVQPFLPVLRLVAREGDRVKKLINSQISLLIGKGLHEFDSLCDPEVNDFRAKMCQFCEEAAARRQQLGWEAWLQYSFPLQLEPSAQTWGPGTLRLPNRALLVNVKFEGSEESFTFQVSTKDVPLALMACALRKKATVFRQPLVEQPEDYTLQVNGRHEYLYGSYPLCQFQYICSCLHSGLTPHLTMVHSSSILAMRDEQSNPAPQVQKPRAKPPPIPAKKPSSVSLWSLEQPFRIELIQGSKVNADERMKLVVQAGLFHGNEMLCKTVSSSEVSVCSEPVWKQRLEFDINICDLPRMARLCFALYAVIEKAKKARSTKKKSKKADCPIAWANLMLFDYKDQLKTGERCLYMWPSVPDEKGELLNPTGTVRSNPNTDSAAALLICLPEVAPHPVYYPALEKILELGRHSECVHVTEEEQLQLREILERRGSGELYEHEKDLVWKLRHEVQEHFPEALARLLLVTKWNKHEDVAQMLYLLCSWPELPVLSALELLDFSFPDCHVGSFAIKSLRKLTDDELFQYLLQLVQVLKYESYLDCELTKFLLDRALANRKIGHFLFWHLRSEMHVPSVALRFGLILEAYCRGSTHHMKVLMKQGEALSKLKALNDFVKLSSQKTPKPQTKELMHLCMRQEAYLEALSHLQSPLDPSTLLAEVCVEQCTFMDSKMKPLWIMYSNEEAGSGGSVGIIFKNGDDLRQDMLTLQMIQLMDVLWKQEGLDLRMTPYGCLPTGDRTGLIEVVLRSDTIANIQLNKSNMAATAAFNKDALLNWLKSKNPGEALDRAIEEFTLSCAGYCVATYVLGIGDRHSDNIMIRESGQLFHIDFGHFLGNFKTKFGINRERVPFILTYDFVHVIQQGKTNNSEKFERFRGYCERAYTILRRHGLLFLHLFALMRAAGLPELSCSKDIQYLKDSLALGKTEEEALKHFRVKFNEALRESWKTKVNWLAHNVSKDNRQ

Sequence of PI3K alpha (P42336 other isoform, or with tags, fused parts or gaps): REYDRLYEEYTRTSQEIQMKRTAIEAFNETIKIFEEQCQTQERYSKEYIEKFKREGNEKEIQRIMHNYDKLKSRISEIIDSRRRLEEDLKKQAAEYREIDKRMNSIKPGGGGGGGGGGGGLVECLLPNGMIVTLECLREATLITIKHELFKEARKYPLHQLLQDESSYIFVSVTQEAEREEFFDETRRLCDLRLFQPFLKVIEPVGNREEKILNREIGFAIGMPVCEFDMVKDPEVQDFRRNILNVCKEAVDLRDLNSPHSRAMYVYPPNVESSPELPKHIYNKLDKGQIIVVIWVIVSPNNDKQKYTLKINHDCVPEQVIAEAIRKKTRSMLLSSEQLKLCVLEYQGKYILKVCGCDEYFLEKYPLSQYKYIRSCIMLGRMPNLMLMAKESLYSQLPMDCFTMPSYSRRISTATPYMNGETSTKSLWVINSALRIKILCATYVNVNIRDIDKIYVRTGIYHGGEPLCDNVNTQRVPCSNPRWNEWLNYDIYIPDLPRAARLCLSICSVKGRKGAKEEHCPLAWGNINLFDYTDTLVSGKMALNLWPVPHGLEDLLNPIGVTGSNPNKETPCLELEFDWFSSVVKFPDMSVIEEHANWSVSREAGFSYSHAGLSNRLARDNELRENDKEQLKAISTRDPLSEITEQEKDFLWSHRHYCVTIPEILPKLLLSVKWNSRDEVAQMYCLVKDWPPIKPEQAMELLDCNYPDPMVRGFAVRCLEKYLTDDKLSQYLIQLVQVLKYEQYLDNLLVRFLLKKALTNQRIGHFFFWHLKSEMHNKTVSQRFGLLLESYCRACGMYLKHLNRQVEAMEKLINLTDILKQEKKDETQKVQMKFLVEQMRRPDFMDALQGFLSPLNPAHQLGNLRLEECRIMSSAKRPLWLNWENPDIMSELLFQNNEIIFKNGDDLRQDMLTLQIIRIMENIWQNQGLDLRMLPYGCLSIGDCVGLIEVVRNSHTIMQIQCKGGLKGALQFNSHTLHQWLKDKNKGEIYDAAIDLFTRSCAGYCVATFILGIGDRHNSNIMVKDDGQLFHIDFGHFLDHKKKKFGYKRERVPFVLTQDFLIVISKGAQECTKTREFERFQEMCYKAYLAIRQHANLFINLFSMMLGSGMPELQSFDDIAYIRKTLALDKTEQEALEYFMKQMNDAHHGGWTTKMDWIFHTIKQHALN

Structure (SMILES)	IC50 (PI3K alpha) [µM]	IC50 (PI3K delta) [µM]
COc1ncc(N2CCc3ncnc(O[C@H]4CCN(C(=O)c5ccno5)C4)c3C2)cc1C [Example 34, Isoxazol-5-yl-{(S)-3-[6-(6-Methoxy-5-methyl-pyridin-3-yl)-5,6,7,8-tetrahydro-pyrido[4,3-d]pyrimidin-4-yloxy]-pyrrolidin-1-yl}-methanone]	1.65	0.014
COc1ncc(N2CCc3ncnc(N[C@H]4CCN(C(=O)c5cn(C)cn5)C4)c3C2)cc1C [Example 77, -{(S)-3-[6-(6-Methoxy-5-methyl-pyridin-3-yl)-5,6,7,8-tetrahydro-pyrido[4,3-d]pyrimidin-4-ylamino]-pyrrolidin-1-yl}-(1-methyl-1H-imidazol-4-yl)-methanone]	1.29	0.044
COc1ncc(N2CCc3ncnc(O[C@H]4CCN(C(=O)c5c[nH]cn5)C4)c3C2)cc1C(F)(F)F [Example 45, (1H-Imidazol-4-yl)-{(S)-3-[6-(6-methoxy-5-trifluoromethyl-pyridin-3-yl)-5,6,7,8-tetrahydro-pyrido[4,3-d]pyrimidin-4-yloxy]-pyrrolidin-1-yl}-methanone]	0.86	0.018
COC(=O)N1CC[C@H](Oc2ncnc3c2CN(c2cnc(OC)c(C#N)c2)CC3)C1 [Example 90, (S)-3-[6-(5-cyano-6-methoxy-pyridin-3-yl)-5,6,7,8-tetrahydro-pyrido[4,3-d]pyrimidin-4-yloxy]-pyrrolidine-1-carboxylic acid methyl ester]		0.038
COc1ncc(N2CCc3ncnc(O[C@H]4CCN(C(=O)N5CCN(C(C)=O)CC5)C4)c3C2)cc1C(F)(F)F [Example 89, 1-(4-{(S)-3-[6-(6-methoxy-5-trifluoromethyl-pyridin-3-yl)-5,6,7,8-tetrahydro-pyrido[4,3-d]pyrimidin-4-yloxy]-pyrrolidine-1-carbonyl}-piperazin-1-yl)-ethanone]	1.19	0.029
COc1ncc(N2CCc3ncnc(O[C@H]4CCN(C(=O)c5cscn5)C4)c3C2)cc1C#N [Example 35, 2-Methoxy-5-{4-[(S)-1-(thiazole-4-carbonyl)-pyrrolidin-3-yloxy]-7,8-dihydro-5H-pyrido[4,3-d]pyrimidin-6-yl}-nicotinonitrile]	4.23	0.049
COc1ncc(N2CCc3ncnc(O[C@H]4CCN(C(=O)N5CCN(C)CC5)C4)c3C2)cc1C(F)(F)F [Example 85, {(S)-3-[6-(6-methoxy-5-trifluoromethyl-pyridin-3-yl)-5,6,7,8-tetrahydro-pyrido[4,3-d]pyrimidin-4-yloxy]-pyrrolidin-1-yl}-(4-methyl-piperazin-1-yl)-methanone]		0.021
COc1ncc(N2CCc3ncnc(O[C@H]4CCN(C(=O)c5cnco5)C4)c3C2)cc1C(F)(F)F [Example 94, {(S)-3-[6-(6-Methoxy-5-trifluoromethyl-pyridin-3-yl)-5,6,7,8-tetrahydro-pyrido[4,3-d]pyrimidin-4-yloxy]-pyrrolidin-1-yl}-oxazol-5-yl-methanone]	1.71	

More lines, in order of falling IC50 (PI3K delta), values ahead:

IC50 (PI3K alpha) [µM]	IC50 (PI3K delta) [µM]	Structure (SMILES)
0.668	0.009	COc1ncc(N2CCc3ncnc(O[C@H]4CCN(C(=O)c5oc(C)nc5C)C4)c3C2)cc1C [Example 10, (2,4-Dimethyl-oxazol-5-yl)-{(S)-3-[6-(6-methoxy-5-methyl-pyridin-3-yl)-5,6,7,8-tetrahydro-pyrido[4,3-d]pyrimidin-4-yloxy]-pyrrolidin-1-yl}-methanone]
0.58	0.008	COc1cc(N2CCc3ncnc(O[C@H]4CCN(C(=O)c5cnco5)C4)c3C2)cnc1OC [Example 22, {(S)-3-[6-(5,6-Dimethoxy-pyridin-3-yl)-5,6,7,8-tetrahydro-pyrido[4,3-d]pyrimidin-4-yloxy]-pyrrolidin-1-yl}-oxazol-5-yl-methanone]
	0.004	COc1ncc(N2CCc3ncnc(N[C@H]4CCN(C(=O)[C@H]5CC[C@@H](OC)CC5)C4)c3C2)cc1C(F)(F)F (single isomer, unassigned) [Example 73]
	0.004	COc1ncc(N2CCc3ncnc(N[C@H]4CCN(C(=O)[C@H]5CC[C@H](OC)CC5)C4)c3C2)cc1C(F)(F)F (single isomer, unassigned) [Example 74]
